Test results: patent US20070156042A1, “Medical device system and method for tracking and visualizing a medical device system under MR guidance” (priority 2005, published 2007)

Assay: Diffusion of a fluorescent probe in swollen gelatin gel by FRAP
Assay type: physicochemical
Settings: coating thickness 60 μm, diffusion coefficient 9×10−12 m2s−1
Text: To assess the stability of DTPA[Gd(III)] in the gelatin coating, the diffusion of a fluorescence probe in gelatin was studied by the technique of fluorescence recovery after photobleaching (FRAP). The instrument and data analysis scheme are described in Kim, S. H. and Yu, H., J. Phys. Chem. 1992, 96, 4034, which is hereby fully incorporated by reference. Fluorescein was used as the fluorescence probe due, in part, to its molecular size being roughly the same as that of DTPA[Gd(III)]. The focus of the study was to examine the possible retardation effects of gelatin concentration and cross-link density on the diffusion, which was determined at room temperature, i.e., below the gel point of gelatin. The diffusion of fluorescein probe slows down with the increase of gelatin concentration. The diffusion coefficient decreases from 1.5×10−10 to 9×10−12 m2s−1 when the concentration of gelatin increases from 9% to 40%. […] Accordingly, the probe diffusion is more likely controlled by the concentration of gelatin rather than the cross-link density. On the other hand, the cross-link density may determine the swelling ratio of gelatin, i.e., the concentration of gelatin in aqueous solution. […]

- time to diffuse out of the gelatin coating: about 67 seconds
Structure (SMILES): O=C(O)CN(CCN(CC(=O)O)CC(=O)O)CCN(CC(=O)O)CC(=O)O [DTPA, diethylenetriaminepentaacetic acid]
